Consider 19 molecules from patent publication US12264159B2, “Functionalized heterocycles as antiviral agents” (Enanta Pharmaceuticals, Inc., priority 2018, dated 2025).

Series [1] concerns HBV in 2.2.15 cells. Nature of the series: 2.2.15 cells: viral product in cell lysates quantified via quantitative real time PCR. It counts as cell-based, hepatitis B virus (HBV). The following applies: Hepatitis B virus, 120 h, day 5 post treatment, 50% reduction of viral product vs no drug controls, readout (qPCR, HBsAg or HBeAg) not specified for the column. In a few lines:
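HBV product was measured at day 5 by lysate qPCR or by supernatant HBsAg/HBeAg ELISA, in 2.2.15 cells seeded at 35,000/well and exposed to 5-fold compound dilution series (0.5% DMSO). EC50 is 50% reduction of viral product relative to untreated controls.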

Series [2] is described as follows: Compound induced cellular toxicity in HepG2 cells, ATPlite 1Step. It counts as cell-based. The conditions noted are these: human, three days exposure, 50% reduction of total ATP vs no drug controls. How it is done:
At day 3, post seeding cells are treated with ATPlite 1Step according to the manufacturer's instructions.
For orientation: In ATP-based viability assays light output follows the ATP content of the culture.

A word on the EC50: it is the midpoint of the concentration-response curve. Low values mean a more potent agent, high ones a less potent agent. As usually defined, the CC50 is the concentration at which the toxic effect on the cells reaches its halfway point. Take `CC(C)[C@@H]1Cn2nc(-c3ccc(F)cc3)c(-c3ccc(F)cc3)c2-c2c(F)c(=O)c(C(=O)O)cn21` [Example 187, (R)-11-fluoro-1,2-bis(4-fluorophenyl)-6-isopropyl-10-oxo-5,6-dihydro-10H-pyrazolo[1,5-a]pyrido[2,1-c]pyrazine-9-carboxylic acid]: the EC50 in series [1] is under 0.1 µM. This molecule yielded a CC50 at 3 days in series [2] of 10 to 25 µM.

`C[C@@H]1Cn2nc(-c3cccc(F)c3)c(-c3cccc(F)c3)c2-c2cc(=O)c(C(=O)O)cn21` [Example 205, (R)-1,2-bis(3-fluorophenyl)-6-methyl-10-oxo-5,6-dihydro-10H-pyrazolo[1,5-a]pyrido[2,1-c]pyrazine-9-carboxylic acid] returned an EC50 in series [1] of under 0.1 µM. The molecule also returned a CC50 at 3 days in series [2] of 10 to 25 µM.

In turn, `COc1ccc(OC)c(-c2cc3n(n2)C[C@@H](C(C)(C)C)n2cc(C(=O)O)c(=O)cc2-3)c1OC` [Example 35, (R)-6-(tert-butyl)-10-oxo-2-(2,3,6-trimethoxyphenyl)-5,6-dihydro-10H-pyrazolo[1,5-a]pyrido[2,2-c]pyrazine-12-carboxylic acid] displayed an EC50 in series [1] of 0.2 to 1 µM. This molecule had a CC50 at 3 days in series [2] of over 25 µM.

Take `COc1ccc(OC(F)(F)F)c(-c2cc3n(n2)C[C@@H](C(C)(C)C)n2cc(C(=O)O)c(=O)cc2-3)c1` [Example 34, (R)-6-(tert-butyl)-2-(5-methoxy-2-(trifluoromethoxy)phenyl)-10-oxo-5,6-dihydro-10H-pyrazolo[1,5-a]pyrido[2,2-c]pyrazine-12-carboxylic acid]: in series [1], the EC50 is under 0.1 µM. Moreover, the CC50 at 3 days in series [2] was over 25 µM.

As to `Cc1cccc(C)c1-c1cc2n(n1)C[C@@H](C(C)(C)C)n1cc(C(=O)O)c(=O)cc1-2` [Example 62, (R)-6-(tert-butyl)-2-(2,6-dimethylphenyl)-10-oxo-5,6-dihydro-10H-pyrazolo[1,5-a]pyrido[2,2-c]pyrazine-12-carboxylic acid], the EC50 in series [1] was in the range of 0.2 to 1 µM. The molecule also yielded a CC50 at 3 days in series [2] of over 25 µM.

For the molecule `CC(C)[C@@H]1Cn2nc(-c3ccc(O)cc3)c(-c3ccc(O)cc3)c2-c2cc(=O)c(C(=O)O)cn21` [Example 172, (R)-1,2-bis(4-hydroxyphenyl)-6-isopropyl-10-oxo-5,6-dihydro-10H-pyrazolo[1,5-a]pyrido[2,1-c]pyrazine-9-carboxylic acid], the EC50 in series [1] is under 0.1 µM. For the same molecule, the CC50 at 3 days in series [2] is over 25 µM.

In the case of `CC(C)(C)[C@@H]1Cn2ncc(-c3ccccc3F)c2-c2cc(=O)c(C(=O)O)cn21` [Example 104, (R)-6-(tert-butyl)-1-(2-fluorophenyl)-10-oxo-5,6-dihydro-10H-pyrazolo[1,5-a]pyrido[2,1-c]pyrazine-9-carboxylic acid], in series [1], the EC50 is under 0.1 µM. The molecule also yielded a CC50 at 3 days in series [2] of 10 to 25 µM.

`CC(C)(C)[C@@H]1Cn2nc(-c3cccc(F)c3)cc2-c2cc(=O)c(C(=O)O)cn21` [Example 2, (R)-6-(tert-butyl)-2-(3-fluorophenyl)-10-oxo-5,6-dihydro-10H-pyrazolo[1,5-a]pyrido[2,2-c]pyrazine-12-carboxylic acid] came in with an EC50 in series [1] of under 0.1 µM. This molecule also came in with a CC50 at 3 days in series [2] of over 25 µM.

In turn, `CC(C)(C)[C@@H]1Cn2nc(-c3c(F)cccc3Cl)cc2-c2cc(=O)c(C(=O)O)cn21` [Example 65, (R)-6-(tert-butyl)-2-(2-chloro-6-fluorophenyl)-10-oxo-5,6-dihydro-10H-pyrazolo[1,5-a]pyrido[2,2-c]pyrazine-12-carboxylic acid] gave an EC50 in series [1] of under 0.1 µM. Besides, the CC50 at 3 days in series [2] was over 25 µM.

In series [1], `CC(C)[C@@H]1Cn2nc(-c3cccc(F)c3)c(-c3cccc(F)c3)c2-c2cc(=O)c(C(=O)O)cn21` [Example 181, (R)-1,2-bis(3-fluorophenyl)-6-isopropyl-10-oxo-5,6-dihydro-10H-pyrazolo[1,5-a]pyrido[2,1-c]pyrazine-9-carboxylic acid] gave an EC50 of under 0.1 µM. For the same molecule, the CC50 at 3 days in series [2] is 10 to 25 µM.

Molecule `CC(C)(C)[C@@H]1Cn2nc(-c3ccc(C(F)(F)F)cc3)cc2-c2cc(=O)c(C(=O)O)cn21` [Example 9, (R)-6-(tert-butyl)-10-oxo-2-(4-(trifluoromethyl)phenyl)-5,6-dihydro-10H-pyrazolo[1,5-a]pyrido[2,2-c]pyrazine-12-carboxylic acid] yielded an EC50 in series [1] of under 0.1 µM. In addition, in series [2], the CC50 at 3 days was over 25 µM.

In the case of `CC(C)(C)[C@@H]1Cn2nc(-c3c(F)ccc4c3OCO4)cc2-c2cc(=O)c(C(=O)O)cn21` [Example 54, (R)-6-(tert-butyl)-2-(5-fluorobenzo[d][1,3]dioxol-4-yl)-10-oxo-5,6-dihydro-10H-pyrazolo[1,5-a]pyrido[2,2-c]pyrazine-12-carboxylic acid], the EC50 in series [1] was under 0.1 µM. In addition, the CC50 at 3 days in series [2] is over 25 µM.

In series [1], `CC(C)(C)[C@@H]1Cn2nc(-c3ccc4c(c3)OCCO4)cc2-c2cc(=O)c(C(=O)O)cn21` [Example 18, (R)-6-(tert-butyl)-2-(2,3-dihydrobenzo[b][1,4]dioxin-6-yl)-10-oxo-5,6-dihydro-10H-pyrazolo[1,5-a]pyrido[2,2-c]pyrazine-12-carboxylic acid] registered an EC50 of under 0.1 µM. This molecule also gave a CC50 at 3 days in series [2] of over 25 µM.

With `CC(C)[C@@H]1Cn2nc(-c3ccccc3)c(-c3ccccc3)c2-c2cc(=O)c(-c3ncn[nH]3)cn21` [Example 192, (R)-6-isopropyl-1,2-diphenyl-9-(1H-1,2,4-triazol-5-yl)-5,6-dihydro-10H-pyrazolo[1,5-a]pyrido[2,1-c]pyrazin-10-one], the EC50 in series [1] was under 0.1 µM. In addition, in series [2], the CC50 at 3 days is over 25 µM.

`C[C@@H]1Cn2nc(-c3ccc(F)cc3)c(-c3ccc(F)cc3)c2-c2cc(=O)c(C(=O)O)cn21` [Example 204, (R)-1,2-bis(4-fluorophenyl)-6-methyl-10-oxo-5,6-dihydro-10H-pyrazolo[1,5-a]pyrido[2,1-c]pyrazine-9-carboxylic acid]: in series [1], the EC50 is under 0.1 µM. In series [2], this molecule showed a CC50 at 3 days of over 25 µM.

Consider `CC(C)[C@@H]1Cn2nc(-c3ccccc3)c(-c3ccccc3)c2-c2c(F)c(=O)c(C(=O)O)cn21` [Example 186, (R)-11-fluoro-6-isopropyl-10-oxo-1,2-diphenyl-5,6-dihydro-10H-pyrazolo[1,5-a]pyrido[2,1-c]pyrazine-9-carboxylic acid], for which the EC50 in series [1] is under 0.1 µM. Also, in series [2], the CC50 at 3 days was over 25 µM.

The molecule `CCOc1c(F)cccc1-c1cc2n(n1)C[C@@H](C(C)(C)C)n1cc(C(=O)O)c(=O)cc1-2` [Example 71, (R)-6-(tert-butyl)-2-(2-ethoxy-3-fluorophenyl)-10-oxo-5,6-dihydro-10H-pyrazolo[1,5-a]pyrido[2,2-c]pyrazine-12-carboxylic acid] showed an EC50 in series [1] of under 0.1 µM. The CC50 at 3 days in series [2] was over 25 µM.

`CC(C)(C)[C@@H]1Cn2nc(-c3ccc(F)nc3)cc2-c2cc(=O)c(C(=O)O)cn21` [Example 38, (R)-6-(tert-butyl)-2-(6-fluoropyridin-3-yl)-10-oxo-5,6-dihydro-10H-pyrazolo[1,5-a]pyrido[2,2-c]pyrazine-12-carboxylic acid] gave an EC50 in series [1] of under 0.1 µM. In addition, in series [2], the CC50 at 3 days is over 25 µM.

Consider `COc1cccc(-c2nn3c(c2-c2cccc(OC)c2)-c2cc(=O)c(C(=O)O)cn2[C@H](C(C)(C)C)C3)c1` [Example 97, (R)-6-(tert-butyl)-1,2-bis(3-methoxyphenyl)-10-oxo-5,6-dihydro-10H-pyrazolo[1,5-a]pyrido[2,1-c]pyrazine-9-carboxylic acid], for which the EC50 in series [1] is under 0.1 µM. The CC50 at 3 days in series [2] is over 25 µM.
